For one data set, the target named is TTR (Homo sapiens (Human), UniProt P02766). Nature of the data set: biochemical. The format is binding. Particulars: FITC-coupled TTR FP probe; read-out: TTR FP IC50. The method, then:
Compound binding to TTR was assessed in the fluorescence polarization assay. […] Each well contained 200 nM TTR and 100 nM FITC-diclofenac in the FP buffer (10 mM Tris-HCl pH 7.5, 150 mM NaCl, 0.01% CHAPS, 0.01% Prionex) along with test compounds. Nonspecific binding was determined in the presence of 500 μM unlabeled diclofenac (Sigma-Aldrich). Reactions with test compounds were incubated overnight at 4° C. and FP was measured on SpectramaxM5e plate reader (Molecular Devices).

The next data set in a line: Kinetic solubility assay. It is filed as physicochemical. Particulars: PBS (pH 7.4). The method, then: Kinetic aqueous solubility determination for compound (±)-44 in PBS (pH 7.4) was conducted by Eurofins using UV detection (230 nm). […] In addition, chromatographic purity (%) was defined as the peak area of the principal peak relative to the total integrated peak area in the HPLC chromatogram of the calibration standard. A chromatogram of the calibration standard of each test compound, along with a UV/VIS spectrum with labeled absorbance maxima, was generated.

The next data set concerns the target PPARγ (Homo sapiens (Human), UniProt P37231). As to the kind of experiment: PPARγ agonist activity.
Data set [1] can be described thus: Plasma protein binding, human plasma. The format is in vitro ADME. Particulars: pH 7.4, read-out: % PPB, H (converted). Here is the method:
Plasma protein binding (PPB) for compounds determination for compound (±)-44 in PBS (pH 7.4) was conducted by Eurofins using equilibrium dialysis of plasma with HPLC-UV/Vis detection.
The peak areas of the test compound in the buffer and test samples were used to calculate percent binding and recovery according to the following formulas:
• Areap=Peak area of analyte in protein matrix • Areab=Peak area of analyte in buffer • Areac=Peak area of analyte in control sample

The next data set addresses serum RBP4 (Mus musculus (Mouse), UniProt Q00724). Nature of the data set: Serum RBP4 measurement after a single oral dose in mice. It is filed as in vivo. The method, then: FIG. 5. Pharmacokinetic and pharmacodynamic properties of (±)-44 in mice. (A) Serum RBP4 levels following a single 25 mg/kg oral administration of (±)-44. (B) Blood compound levels following administration of a single oral 5 mg/kg dose of (±)-44. Data represented as the mean±SD. Three mice per treatment group were used in the study.
Blood samples were collected from a tail vein. Whole blood was drawn into a centrifuge tube and was allowed to clot at room temperature for 30 minutes followed by centrifugation at 2000 g for 15 minutes at […] to collect serum. Aliquots of plasma samples collected in the mouse pharmacokinetic study were analyzed for the RBP4 concentration using the RBP4 (mouse/rat) dual ELISA kit (AdipoGen, San Diego, CA) following the manufacturer's instructions. In adi-hRBP4 transgenic mouse experiments, blood samples were collected from a tail vein. […] Mouse serum RBP4 (produced predominantly in the liver) was measured using the RBP4 (mouse/rat) dual ELISA kit (AdipoGen, San Diego, CA; catalog number AG-45A-0012YTP-KI01)

Structures are written as SMILES. pIC50: −log10 of the molar value. ≈ marks a conversion by molar mass, not a printed value.

PPARγ, sequence (P37231 whole entry, species assumed): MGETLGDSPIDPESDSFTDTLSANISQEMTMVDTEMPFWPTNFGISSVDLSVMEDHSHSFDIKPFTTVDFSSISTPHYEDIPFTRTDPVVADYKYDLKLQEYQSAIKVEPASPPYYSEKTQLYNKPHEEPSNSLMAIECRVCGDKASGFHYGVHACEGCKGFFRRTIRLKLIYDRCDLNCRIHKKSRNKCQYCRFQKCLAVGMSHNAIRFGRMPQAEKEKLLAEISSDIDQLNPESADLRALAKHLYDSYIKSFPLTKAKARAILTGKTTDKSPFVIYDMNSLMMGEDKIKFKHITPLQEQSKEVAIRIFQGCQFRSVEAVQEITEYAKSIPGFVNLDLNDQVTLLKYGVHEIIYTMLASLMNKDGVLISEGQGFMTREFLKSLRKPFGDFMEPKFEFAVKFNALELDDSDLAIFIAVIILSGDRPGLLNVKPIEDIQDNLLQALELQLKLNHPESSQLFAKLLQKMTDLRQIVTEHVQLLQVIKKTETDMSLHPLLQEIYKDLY

By pIC50 is commonly meant −log10 of the IC50, conventionally taken in molar units. In general, solubility (kinetic) refers to solubility judged after dilution from a stock solution rather than from solid. With `Cc1cc(C(=O)O)nc(N2CCC(COc3ccccc3C(F)(F)F)C2)n1` (racemic) [Compound (±)-44, (±)-6-Methyl-2-(3-((2-(trifluoromethyl)phenoxy)methyl)pyrrolidin-1-yl)pyrimidine-4-carboxylic Acid], the figures for the negative logarithm of the IC50 (pIC50) on TTR and on PPARγ were 5.55 and less than 4.00, respectively. Moreover, in the data set “Kinetic solubility assay”, the kinetic solubility is given as 187.4 µM (≈ 71.5 µg/mL). The PPARγ agonist activity result on PPARγ is on record as “devoid of PPARγ agonist activity”. Besides, the fraction unbound in data set [1] is 0.002. In addition, the “effect on serum TTR levels” value at serum RBP4 (compound dosing in mice, data not shown) is reported as “no effect”. At serum RBP4 (single 25 mg/kg oral dose, 6 h after dose), the “maximum reduction in serum RBP4” value is 81%. In addition, the “reduction in serum RBP4 at the 24 h time point” value at serum RBP4 (single 25 mg/kg oral dose, 24 h) was determined as 64%.

These data come from US20230348415A1, “BISPECIFIC ANTAGONISTS OF RETINOL-BINDING PROTEIN 4 THAT STABILIZE TRANSTHYRETIN TETRAMERS, THEIR PREPARATION, AND USE IN THE TREATMENT OF COMMON AGE-RELATED COMORBIDITIES” (The Trustees of Columbia University in the City of New York, priority 2020, published 2023).
